Experiment: xn = mol fraction of the nth substance listed, in the solute-free solvent

Clc1ncnc2[nH]ccc12 + C1CCOC1 + CO
solubility (g/100 g solution)
Conditions | 278.15 K | 283.15 K | 288.15 K | 293.15 K | 298.15 K | 303.15 K | 308.15 K | 313.15 K | 318.15 K | 323.15 K
x2 = 0.09054 | 4.18 | 4.85 | 5.59 | 6.45 | 7.41 | 8.85 | 9.6 | 10.8 | 12.2 | 13.6
x2 = 0.1993 | 6.2 | 7.11 | 8.13 | 9.15 | 10.3 | 11.6 | 12.9 | 14.3 | 15.9 | 17.4
x2 = 0.3323 | 8.17 | 9.22 | 10.3 | 11.4 | 12.7 | 14.1 | 15.4 | 17 | 18.5 | 20.2
x2 = 0.4107 | 8.75 | 9.76 | 10.9 | 12 | 13.4 | 14.6 | 16.1 | 17.5 | 19.1 | 20.7
x2 = 0.4989 | 9.02 | 10 | 11.1 | 12.2 | 13.5 | 14.8 | 16.1 | 17.5 | 18.9 | 20.5
x2 = 0.7134 | 8.95 | 9.87 | 10.8 | 11.8 | 13 | 14 | 15.2 | 16.5 | 17.7 | 19.1

— the CheMixHub drug solubility set
